Measurements taken from the NIST ThermoML archive (doi:10.1016/j.jct.2010.06.009).

Assay: activity coefficient (dimensionless); of the first substance listed, at infinite dilution; xn = mol fraction of the nth substance listed
Conditions: 101 kPa, Liquid, Chromatography, x1 = 0

c1ccccc1 [benzene] + CCCCC[n+]1ccccc1.O=S(=O)([N-]S(=O)(=O)C(F)(F)F)C(F)(F)F
Conditions | activity coefficient
303.2 K | 0.98
312.6 K | 0.99
323.2 K | 1.01
333.1 K | 1.02
343.3 K | 1.03
353.5 K | 1.04

c1ccccc1 [benzene] + CCCC[n+]1ccccc1.O=S(=O)([N-]S(=O)(=O)C(F)(F)F)C(F)(F)F
Conditions | activity coefficient
302.8 K | 1.33
312.6 K | 1.34
323.2 K | 1.35
333.2 K | 1.35
343.1 K | 1.35
353.3 K | 1.36

c1ccccc1 [benzene] + CC[n+]1ccccc1.O=S(=O)([N-]S(=O)(=O)C(F)(F)F)C(F)(F)F
Conditions | activity coefficient
302.6 K | 1.5
313 K | 1.49
323.2 K | 1.47
333.1 K | 1.43
343 K | 1.39
353.1 K | 1.36

C1CCCCC1 [cyclohexane] + CCCCC[n+]1ccccc1.O=S(=O)([N-]S(=O)(=O)C(F)(F)F)C(F)(F)F
Conditions | activity coefficient
303.2 K | 7.35
312.7 K | 6.67
323.4 K | 5.91
333.3 K | 5.3
343.3 K | 4.66
353.3 K | 4.06

C1CCCCC1 [cyclohexane] + CCCC[n+]1ccccc1.O=S(=O)([N-]S(=O)(=O)C(F)(F)F)C(F)(F)F
Conditions | activity coefficient
302.9 K | 9.66
312.4 K | 8.64
323.2 K | 7.88
333.2 K | 6.7
343.3 K | 5.61
353.4 K | 4.72

C1CCCCC1 [cyclohexane] + CC[n+]1ccccc1.O=S(=O)([N-]S(=O)(=O)C(F)(F)F)C(F)(F)F
Conditions | activity coefficient
302.8 K | 11.4
313.3 K | 9.56
323.1 K | 8.04
333 K | 6.76
342.9 K | 5.63
353 K | 4.65

CCO [ethanol] + CCCCC[n+]1ccccc1.O=S(=O)([N-]S(=O)(=O)C(F)(F)F)C(F)(F)F
Conditions | activity coefficient
302.8 K | 2.09
313.5 K | 1.86
323.4 K | 1.67
333.3 K | 1.5
343.2 K | 1.35
353.4 K | 1.19

CCO [ethanol] + CCCC[n+]1ccccc1.O=S(=O)([N-]S(=O)(=O)C(F)(F)F)C(F)(F)F
Conditions | activity coefficient
302.5 K | 2.67
313.4 K | 2.26
323.1 K | 2.02
333.1 K | 1.8
343.1 K | 1.61
352.9 K | 1.45

CCO [ethanol] + CC[n+]1ccccc1.O=S(=O)([N-]S(=O)(=O)C(F)(F)F)C(F)(F)F
Conditions | activity coefficient
302.5 K | 2.63
313.1 K | 2.36
323 K | 2.13
332.9 K | 1.91
342.9 K | 1.71
353 K | 1.54

CCc1ccccc1 [ethylbenzene] + CCCCC[n+]1ccccc1.O=S(=O)([N-]S(=O)(=O)C(F)(F)F)C(F)(F)F
Conditions | activity coefficient
303.1 K | 1.93
312.8 K | 1.95
323.4 K | 1.96
333.4 K | 1.98
343.3 K | 1.99
353.5 K | 2

CCc1ccccc1 [ethylbenzene] + CCCC[n+]1ccccc1.O=S(=O)([N-]S(=O)(=O)C(F)(F)F)C(F)(F)F
Conditions | activity coefficient
302.8 K | 2.74
312.6 K | 2.75
323.3 K | 2.77
333.2 K | 2.77
343.2 K | 2.78
353.3 K | 2.78

CCc1ccccc1 [ethylbenzene] + CC[n+]1ccccc1.O=S(=O)([N-]S(=O)(=O)C(F)(F)F)C(F)(F)F
Conditions | activity coefficient
303.4 K | 3.34
313.1 K | 3.36
323.2 K | 3.37
333.1 K | 3.39
343 K | 3.4
353.1 K | 3.41

CCCCCCC [heptane] + CCCCC[n+]1ccccc1.O=S(=O)([N-]S(=O)(=O)C(F)(F)F)C(F)(F)F
Conditions | activity coefficient
303.2 K | 16.5
312.7 K | 14.6
323.4 K | 12.6
333.3 K | 11
343.3 K | 9.35
353.3 K | 7.98

CCCCCCC [heptane] + CCCC[n+]1ccccc1.O=S(=O)([N-]S(=O)(=O)C(F)(F)F)C(F)(F)F
Conditions | activity coefficient
302.8 K | 21.8
312.4 K | 19.4
323.2 K | 16.8
333.2 K | 13.8
343.3 K | 11.4
353.4 K | 9.35

CCCCCCC [heptane] + CC[n+]1ccccc1.O=S(=O)([N-]S(=O)(=O)C(F)(F)F)C(F)(F)F
Conditions | activity coefficient
302.8 K | 29.3
313.3 K | 23.1
323.1 K | 18.6
333 K | 14.7
342.9 K | 11.8
353 K | 9.37

C=CCCCC [hex-1-ene] + CCCCC[n+]1ccccc1.O=S(=O)([N-]S(=O)(=O)C(F)(F)F)C(F)(F)F
Conditions | activity coefficient
302.9 K | 6.22
312.8 K | 5.46
322.6 K | 4.84
333.4 K | 4.17
343.4 K | 3.55
353.4 K | 3.08

C=CCCCC [hex-1-ene] + CCCC[n+]1ccccc1.O=S(=O)([N-]S(=O)(=O)C(F)(F)F)C(F)(F)F
Conditions | activity coefficient
302.3 K | 8.87
312.9 K | 7.45
323 K | 6.38
332.8 K | 5.29
343 K | 4.33
352.8 K | 3.71

C=CCCCC [hex-1-ene] + CC[n+]1ccccc1.O=S(=O)([N-]S(=O)(=O)C(F)(F)F)C(F)(F)F
Conditions | activity coefficient
302.6 K | 11.5
313.1 K | 9.42
322.9 K | 7.86
332.8 K | 6.54
342.9 K | 5.34
353 K | 4.4

CCCCCC [hexane] + CCCCC[n+]1ccccc1.O=S(=O)([N-]S(=O)(=O)C(F)(F)F)C(F)(F)F
Conditions | activity coefficient
303.3 K | 9.78
312.7 K | 8.36
323.4 K | 7
333.3 K | 5.98
343.3 K | 5.01
353.3 K | 4.25

CCCCCC [hexane] + CCCC[n+]1ccccc1.O=S(=O)([N-]S(=O)(=O)C(F)(F)F)C(F)(F)F
Conditions | activity coefficient
302.8 K | 11.9
312.4 K | 10.4
323.2 K | 8.58
332.8 K | 7.59
343.3 K | 5.85
353.4 K | 4.75

CCCCCC [hexane] + CC[n+]1ccccc1.O=S(=O)([N-]S(=O)(=O)C(F)(F)F)C(F)(F)F
Conditions | activity coefficient
302.8 K | 13.8
313.3 K | 10.8
323.1 K | 8.59
333 K | 6.86
342.9 K | 5.46
353 K | 4.38

CO [methanol] + CCCCC[n+]1ccccc1.O=S(=O)([N-]S(=O)(=O)C(F)(F)F)C(F)(F)F
Conditions | activity coefficient
302.8 K | 1.62
313.5 K | 1.46
323.4 K | 1.31
333.3 K | 1.18
343.2 K | 1.06
353.4 K | 0.94

CO [methanol] + CCCC[n+]1ccccc1.O=S(=O)([N-]S(=O)(=O)C(F)(F)F)C(F)(F)F
Conditions | activity coefficient
302.7 K | 2
313.4 K | 1.73
323.1 K | 1.56
333.1 K | 1.39
343.1 K | 1.25
353.3 K | 1.12

CO [methanol] + CC[n+]1ccccc1.O=S(=O)([N-]S(=O)(=O)C(F)(F)F)C(F)(F)F
Conditions | activity coefficient
302.5 K | 1.86
313.1 K | 1.69
323 K | 1.53
332.9 K | 1.38
342.9 K | 1.26
353 K | 1.13
